# Experimental data published in patent publication US20190275022A1, “METHODS, COMPOSITIONS, AND COMPOUNDS FOR TREATMENT OF DERMATOLOGICAL AND OCULAR CONDITIONS” (Allergan, Inc., priority 2016, published 2019).
# Like-named read-outs stand apart in the source and are kept apart here.
# Tests used:
# [1] = test system: lipopolysaccharide (LPS)-induced ocular inflammation model; experiment: LPS-induced ocular inflammation model, aqueous humor cells and protein, survival; format: in vivo; conditions: for % Efficacy, Cell % Inhibition / % Efficacy, Protein % Inhibition: aqueous humor
# Procedure: Male Lewis rats, weighing about 250 to 270 grams, were purchased from Charles River and used for all studies. Lipopolysaccharide (LPS) was made fresh in sterile saline (1 mg/ml), kept on ice, and administered by footpad injection at a total dose of 100 μg (100 μl) per animal. Twenty-four hours later, at the time of maximal inflammation in this model, the rats were euthanized by CO2 inhalation. Aqueous humor was collected and analyzed for protein concentration and cell counts.
# For the calculation of the percentage of cell inhibition, the number of cells in treatment group were divided by the average number of cells in vehicle group times 100. For the calculation of the percentage of protein inhibition, the amount protein in treatment group was divided by the average protein in the vehicle group times 100.
# Aqueous humor was collected from both eyes by anterior chamber puncture, performed under an operating microscope, using a 30-gauge needle and 25 μl Hamilton syringe (Catalog number 1702). aqueous humor from both eyes was pooled and kept on ice until further analysis.
# Protein determination was carried out using a standard Bradford method. Cell counting was done by using either a hemocytometer or an automated cell counter (BioRad TC10).
# [2] = test system: Oxazolone (OXA) dermatitis in SKH1-E hairless mice; experiment: Oxazolone-induced dermatitis model, topical or oral treatment, SCORAD and resolved lesions; format: in vivo; conditions: for day of statistically significant improvement in SCORAD clinical scores: topical, vs. vehicle
# Procedure: Female SKH1-E hairless mice (Charles River) weighing approximately 25 g at 2-3 months of age were used in the following study. For model induction, the mice were sensitized on Day −7 (minus seven) by topical application of 50 μl of 5% Oxazolone (OXA) solubilized in ethanol on the hind flank. Dermatitis was elicited by repeated topical challenges with 50 μl of 0.1% Oxazolone every other day until the end of the study.
# For administration of the test compounds, the test compounds were solubilized in a 70% ethanol/30% DMSO vehicle solution and kept at 4° C. Beginning on Day 0, the test compounds were administered twice daily (AM/PM) by topical application (50 μl volume) for 12 days. Betamethasone (0.12%) was used as a positive control and dosed once daily in the AM. Test article dosing and topical challenges were separated by at least 4 hours and all compounds were masked to investigators.
# For clinical assessment, the degree of dermatitis was graded on a SCORAD (scoring atopic dermatitis) based scoring system of 0-3 (with 0=no symptoms, 1=Mild, 2=Moderate, 3=Severe) prior to challenge by a masked investigator.
# (§1) For tissue collection, on the day of necropsy, animals were euthanized at 2 hours post final dose via CO2 inhalation with death verified by cervical dislocation. Whole blood was collected via cardiac puncture (˜250 μl) in EDTA/K^+ treated tubes for plasma analysis of drug concentrations. A rectangular strip of skin from the left side of treatment back area was collected for hematoxylin-eosin (H&E) stain. Prior to placing tissue in 10% formalin, the skin thickness was measured using a calibrated caliper (mm). Three 8 mm tissue punches were then collected from the right side of the treatment area and stored at −80° C. for cytokine protein (LUMINEX) or gene expression assays.
# [3] = test system: PMBC TNF; conditions: data from literature; read-out: PMBC TNF Inhib. IC50; cited from earlier work
# [4] = test system: dry eye disease; experiment: Example of treatment of dry eye disease (patient case); format: in vivo, human; conditions: eye drops once a day; after about 1 to 2 months
# Source text: A person presents with a history of having gritty, itchy and burning sensations in the both eyes which was previously generally diagnose as dry eye and has been treated with artificial tear drops applied topically to the eye as needed. The patient complains that the artificial tear solutions require too many applications per day. Medical evaluation of the patient results in the identification of the patient's dry eye disease as being dry eye disease where tear production is presumed to be suppressed due to ocular inflammation associated with the dry eye disease. The patient is prescribed eye drops containing an effective amount of the compound of Formula I with instructions to apply medication once a day.
# [5] = test system: rosacea; experiment: Example of treatment of rosacea (patient case); format: in vivo, human; conditions: topical one or twice a day; after about two days
# Source text: A person presents with visible facial erythema and edema with telangiectases and visible papules and pustules resembling acne. […] Upon clinical examination, the patient is diagnosed with rosacea in its inflammatory phase. The patient is prescribed a topical composition comprising an effective amount of the compound of Formula I and instructed to apply the composition to the affected areas one or twice a day.
# [6] = test system: PDE4 versus other PDEs
# [7] = biological target: human PDE4B2 (Homo sapiens, UniProt Q07343); experiment: Phosphodiesterase assay, recombinant human PDE4B2 ([3H]cAMP hydrolysis); format: biochemical
# Chain of human PDE4B2 (Q07343 1-564 isoform Q07343-2): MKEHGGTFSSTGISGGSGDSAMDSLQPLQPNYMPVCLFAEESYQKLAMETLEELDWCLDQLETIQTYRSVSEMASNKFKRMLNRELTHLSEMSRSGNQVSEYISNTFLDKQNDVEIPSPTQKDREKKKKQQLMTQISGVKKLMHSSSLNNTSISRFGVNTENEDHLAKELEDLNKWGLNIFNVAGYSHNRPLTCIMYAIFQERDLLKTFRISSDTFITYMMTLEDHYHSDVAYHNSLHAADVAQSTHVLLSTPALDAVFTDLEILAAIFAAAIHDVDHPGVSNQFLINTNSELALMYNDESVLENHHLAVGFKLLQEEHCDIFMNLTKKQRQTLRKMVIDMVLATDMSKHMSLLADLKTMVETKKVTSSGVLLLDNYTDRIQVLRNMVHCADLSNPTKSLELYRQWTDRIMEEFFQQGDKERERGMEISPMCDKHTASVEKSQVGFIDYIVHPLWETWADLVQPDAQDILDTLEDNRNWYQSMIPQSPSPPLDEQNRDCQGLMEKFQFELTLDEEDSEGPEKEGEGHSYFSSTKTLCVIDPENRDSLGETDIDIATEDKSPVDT
# Procedure: A phosphodiesterase assay was performed using recombinant human PDE expressed in a baculoviral system.
# The assay consisted of a two-step procedure. Tritium-labeled cyclic AMP was hydrolyzed to 5′-AMP by phosphodiesterase. The 5′-AMP was then further hydrolyzed to adenosine by nucleotidase in snake venom. An anion-exchange resin bound all charged nucleotides and left [^3H]adenosine as the only labeled compound to be counted by liquid scintillation.
# All compounds were tested at a 10 μM starting concentration with a 1 in 3, 8 point IC50. […] The IC50 of each compound and the standard inhibitor (Rolipram) was determined. The standard inhibitor value was compared to historical assay data to ensure that it was within an acceptable range.
# [8] = test system: pruritus, atopic dermatitis; experiment: Example of treatment of pruritus / atopic dermatitis (patient case); format: in vivo, human; conditions: topical cream once a day
# Source text: A person presents with a history of chronic relapsing atopic dermatitis (eczema), with severe itching, beginning. Their rash is characterized by red, itchy eruptions on cheeks and legs. Patient's parents stated that during a flare-up child is irritable at home and severe scratching disrupts sleep at night. Patient also feels very self-conscious of rash and is socially withdrawn at school during a flare-up. History of treatment have included lukewarm soaking baths and the use of over the counter emollients and creams. Topical calcineurin inhibitors were reported to exacerbate pruritus. The patient is prescribed a topical cream of the compound of Formula I with instructions to apply medication once day.
# [9] = Oral bio-availability; conditions: in vivo
# [10] = Plasma drug concentration after topical dosing in the dermatitis model (LC-MS/MS); format: in vivo
# Procedure: as §1
# The whole-blood samples collected in Example 2 were analyzed for drug concentrations. In particular, plasma samples were extracted by protein precipitation with acetonitrile and analyzed for drug concentrations by the bioanalytical laboratory using liquid chromatography tandem mass spectrometry (LC-MS/MS). Propranolol (200 ng/mL) was used as an internal standard for the extraction procedure. Working standards were prepared by series dilution (0.5 ng/mL) into acetonitrile from a stock solution of 10 ug/mL. All samples were analyzed using the API 5000 LC-MS/MS system in 0.1% formic acid in water.
# [11] = test system: plaque psoriasis; experiment: Example of treatment of plaque psoriasis (patient case); format: in vivo, human; conditions: topical up to three times a day; after 1 to 4 months
# Source text: A person presents with erythematous plaques covered with thick, silvery, shiny scales on the extensor surfaces of their elbows and knees. After a clinical evaluation, the patient is diagnosed with plaque psoriasis. The patient is prescribed a pharmaceutical composition containing an effective amount of the compound of Formula I with instructions to apply the composition topically to the plaques up to three times a day.
# [12] = 0.01-0.5 mg/kg subcutaneously, dose dependent
# [13] = human PDE4B2, read-out: Enzymatic IC50
compound,measurement,setting,value
N#Cc1ccc(Oc2ccc3c(c2)COB3O)cc1 [drawing 23],% Survival,[1]; systemic dose 1.0 mg/kg,100%
same,"% Efficacy, Cell % Inhibition",[1]; systemic dose 1.0 mg/kg,51%
same,"% Efficacy, Protein % Inhibition",[1]; systemic dose 1.0 mg/kg,13%
CCOc1cc([C@@H](CS(C)(=O)=O)N2C(=O)c3cccc(NC(C)=O)c3C2=O)ccc1OC [apremilast],animals with resolved lesions,[2]; topically applied at 1%,approximately 40%
same,IC50,[3],110 nM
CS(=O)(=O)Nc1ccc(C(=O)O[C@@H](Cc2c(Cl)c[n+]([O-])cc2Cl)c2ccc(OC(F)F)c(OCC3CC3)c2)cc1OCC1CC1 [Compound A],"gritty, itchy and burning sensations",[4],significant reduction
same,tear production,[4],enough of an increase in tear production that the artificial tear drops are needed much less frequently
same,percentage of cells in the aqueous humor,[1]; [12],significantly reduced
same,percentage of protein in the aqueous humor,[1]; [12],significantly reduced
same,% Survival,[1]; systemic dose 0.1 mg/kg,100%
same,"% Efficacy, Cell % Inhibition",[1]; systemic dose 0.1 mg/kg,95%
same,"% Efficacy, Protein % Inhibition",[1]; systemic dose 0.1 mg/kg,67%
same,rosacea affected areas,[5],noticeable clearing of the affected areas
same,reduction of SCORAD clinical scores earlier than benchmark AN-2728,"[2]; topical 0.01-1% w/v, compared to AN-2728",4 days
same,day of statistically significant improvement in SCORAD clinical scores,[2],≤ 5 days
same,animals with resolved lesions,[2]; topically applied at 0.01%,approximately 60%
same,animals with resolved lesions,[2]; topically applied at 1%,approximately 90%
same,selectivity for PDE4 versus other PDEs,[6],greater than 50 fold
same,IC50,[7]; [13],0.04 nM
same,IC50,[3],0.03 nM
same,redness and eruptions on the skin,[8]; after approximately 3 weeks,significant reduction
same,scratching,[8]; within the first week,noticeable reduction in scratching
same,oral bio-availability,[9],does not show any oral bio-availability
same,concentration at 2 h,"[10]; mouse, in vivo, delivered topically to the skin, 2 hours post final dose, read-out: plasma concentrations",< 5 ng/mL
same,plasma concentrations,"[10]; topical 0.01%, 8 of the 10 animals",below quantifiable limits
same,psoriatic plaques,[11],almost completely disappeared
O=C(Nc1c(Cl)cncc1Cl)c1ccc(OC(F)F)c(OCC2CC2)c1 [drawing 21],% Survival,[1]; systemic dose 0.3 mg/kg,100%
same,"% Efficacy, Cell % Inhibition",[1]; systemic dose 0.3 mg/kg,97%
same,"% Efficacy, Protein % Inhibition",[1]; systemic dose 0.3 mg/kg,77%
O=C(Nc1c(Cl)cncc1Cl)c1ccc(OC(F)F)c(OCC2CC2)c1 [roflumilast],IC50,[3],1.8 nM
N#Cc1ccc(Oc2ccc3c(c2)COB3O)cc1 [AN-2728],day of statistically significant improvement in SCORAD clinical scores,[2],≥ 9 days
same,IC50,[7],26 nM
same,IC50,[3],170 nM
COc1cccc(Nc2c(C(N)=O)cnc3c(C)cc(S(=O)(=O)c4cccc(C(=O)N(C)C)c4)cc23)c1 [GSK-256066],safety in the ocular inflammation model,"[1]; rat, in vivo",resulted in death of the animals
same,% Survival,[1]; systemic dose 1.0 mg/kg,0%
same,IC50,[7]; [13],0.007 nM
same,IC50,[3],0.01 nM
CCOc1cc([C@@H](CS(C)(=O)=O)N2C(=O)c3cccc(NC(C)=O)c3C2=O)ccc1OC [drawing 22],% Survival,[1]; systemic dose 10.0 mg/kg,100%
same,"% Efficacy, Cell % Inhibition",[1]; systemic dose 10.0 mg/kg,94%
same,"% Efficacy, Protein % Inhibition",[1]; systemic dose 10.0 mg/kg,58%
CCCNC(=O)COc1c(C(=O)Cc2c(Cl)cncc2Cl)ccc(OC)c1OC,% Survival,[1]; systemic dose 1.0 mg/kg,100%
same,"% Efficacy, Cell % Inhibition",[1]; systemic dose 1.0 mg/kg,67%
same,"% Efficacy, Protein % Inhibition",[1]; systemic dose 1.0 mg/kg,29%
